Source: patent US8912120B2, “Herbicidal compositions comprising 4-amino-3-chloro-5-fluoro-6-(4-chloro-2-fluoro-3-methoxyphenyl) pyridine-2-carboxylic acid or a derivative thereof and synthetic auxin herbicides” (Dow AgroSciences, LLC., priority 2012, dated 2014)
Where two headings read alike, the source gives them in different places.

Experiments:
[1] = test system: SCPMA; assay: Example II: in-water applied herbicidal mixtures, transplanted paddy rice, SCPMA; format: in vivo; conditions: for Visual Weed Control (%) - 20 DAA SCPMA Obs: in-water application
Protocol: The prepared mud was dispensed in 365 mL aliquots into 16-ounce (oz.) non-perforated plastic pots with a surface area of 86.59 square centimeters (cm^2) leaving a headspace of 3 centimeters (cm) in each pot Mud was allowed to dry overnight prior to planting or transplanting. Rice seeds were planted in Sun Gro MetroMix® 306 planting mixture, which typically has a pH of 6.0 to 6.8 and an organic matter content of about 30 percent, in plastic plug trays. Seedlings at the second or third leaf stage of growth were transplanted into 840 mL of mud contained in 32-oz. non-perforated plastic pots with a surface area of 86.59 cm^2 4 days prior to herbicide application. […] Nutrients were added as Osmocote® (19:6:12, N:P:K^+ minor nutrients) at 2 g per 16-oz. pot and 4 g per 32-oz. pot.
Applications were made by injecting with a pipetter appropriate amounts of the application solutions, individually and sequentially, into the aqueous layer of the paddy. Control plants were treated in the same manner with the solvent blank. Applications were made so that all treated plant material received the same concentrations of acetone and crop oil concentrate.

[2] = test system: DIGSA; assay: Example I: postemergence foliar-applied herbicidal mixtures, direct seeded rice, DIGSA; conditions: 21.2 gae/ha
Protocol: (§2) The soil matrix was contained in plastic pots with a volume of 1 quart and a surface area of 83.6 square centimeters (cm^2). […] The plants were grown for 8-22 days in a greenhouse with an approximate 14 h photoperiod which was maintained at about 29° C. during the day and 26° C. during the night. Nutrients (Peters Excel® 15-5-15 5-Ca 2-Mg and iron chelate) were applied in the irrigation solution as needed and water was added on a regular basis. Supplemental lighting was provided with overhead metal halide 1000-Watt lamps as necessary. The plants were employed for testing when they reached the first through fourth true leaf stage.
(§3) Treatments consisted of the acid or esters of 4-amino-3-chloro-5-fluoro-6-(4-chloro-2-fluoro-3-methoxy-phenyl)pyridine-2-carboxylic acid (Compound A), each formulated as an SC (suspension concentrate), and various herbicidal components alone and in combination. Forms of compound A were applied on an acid equivalent basis.
(§4) For treatments comprised of formulated compounds, measured amounts of compounds were placed individually in 25 mL glass vials and diluted in a volume of 1.25% (v/v) Agri-Dex® crop oil concentrated to obtain 12× stock solutions. […] Application solutions were prepared by adding an appropriate amount of each stock solution (e.g., 1 mL) and diluted to the appropriate final concentrations with the addition of 10 mL of an aqueous mixture of 1.25% (v/v) crop oil concentrate so that the final spray solutions contained 1.25+/−0.05% (v/v) crop oil concentrate.
(§5) All stock solutions and applications solutions were visually inspected for compound compatibility prior to application. Spray solutions were applied to the plant material with an overhead Mandel track sprayer equipped with a 8002E nozzles calibrated to deliver 187 L/ha over an application area of 0.503 m^2 at a spray height of 18 to 20 inches (46 to 50 cm) above average plant canopy height. Control plants were sprayed in the same manner with the solvent blank.
(§6) The treated plants and control plants were placed in a greenhouse as described above and watered by sub-irrigation to prevent wash-off of the test compounds. After approximately 3 weeks, the condition of the test plants as compared with that of the untreated plants was determined visually and scored on a scale of 0 to 100 percent where 0 corresponds to no injury or growth inhibition and 100 corresponds to complete kill.
(§7) Colby's equation was used to determine the herbicidal effects expected from the mixtures (Colby, S. R. 1967. Calculation of the synergistic and antagonistic response of herbicide combinations. Weeds 15:20-22).
(§8) The following equation was used to calculate the expected activity of mixtures containing two active ingredients, A and B: Expected=A+B−(A×B/100)
(§9) A=observed efficacy of active ingredient A at the same concentration as used in the mixture.
(§10) B=observed efficacy of active ingredient B at the same concentration as used in the mixture.

[3] = test system: LEFCH; assay: Example I: postemergence foliar-applied herbicidal mixtures, direct seeded rice, LEFCH; format: in vivo, Leptochloa chinensis (Chinese sprangletop)
[4] = test system: ECHCO; assay: Example I: postemergence foliar-applied herbicidal mixtures, direct seeded rice, ECHCO
Protocol: as §2, §3, §4, §5, §6, §7, §8, §9, §10

[5] = test system: ECHOR; assay: Example II: in-water applied herbicidal mixtures, transplanted paddy rice, ECHOR; format: in vivo, Echinochloa oryzoides (early watergrass)
Procedure, shortened: (§1)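 Greenhouse paddy pots of dried mud; rice seedlings at the second or third leaf stage were transplanted into mud 4 days before treatment. Osmocote 19:6:12 supplied nutrients. Solutions were pipetted individually and sequentially into the paddy water, with equal acetone and crop oil concentrate across treatments; controls got solvent blank.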

[6] = test system: IPOHE; assay: Example I: postemergence foliar-applied herbicidal mixtures, direct seeded rice, IPOHE; format: in vivo, Ipomoea hederacea (ivyleaf morningglory)
Protocol: as §2, §3, §4, §5, §6, §7, §8, §9, §10

[7] = test system: ECHCG; assay: Example I: postemergence foliar-applied herbicidal mixtures, direct seeded rice, ECHCG
[8] = test system: ECHCG; assay: Example II: in-water applied herbicidal mixtures, transplanted paddy rice, ECHCG; format: in vivo, Echinochloa crus-galli (barnyardgrass); conditions: for Visual Weed Control (%) - 21 DAA ECHCG Obs / Visual Weed Control (%) - 22 DAA ECHCG Obs: in-water application
Procedure, shortened: as §1

[9] = test system: CYPRO; assay: Example II: in-water applied herbicidal mixtures, weed control in transplanted paddy rice (greenhouse), CYPRO; format: in vivo, Cyperus rotundus (purple nutsedge); conditions: for Visual Weed Control (%) - 20 DAA CYPRO Obs / Visual Weed Control (%) - 21 DAA CYPRO Obs / Visual Weed Control (%) - 22 DAA CYPRO Obs: in-water application
Procedure, shortened: as §1

[10] = test system: CYPIR; assay: Example I: postemergence foliar-applied herbicidal mixtures, direct seeded rice, CYPIR; format: in vivo, Cyperus iria (rice flatsedge); conditions: 5.3 gae/ha
Protocol: as §2, §3, §4, §5, §6, §7, §8, §9, §10

[11] = test system: LEFCH; assay: Example II: in-water applied herbicidal mixtures, transplanted paddy rice, LEFCH; format: in vivo, Leptochloa chinensis (Chinese sprangletop)
Procedure, shortened: as §1

[12] = 8.75 gae/ha, in-water application
[13] = 17.5 gae/ha, in-water application
[14] = 35 gae/ha, in-water application
[15] = 42.4 gae/ha, in-water application

SMILES: COc1c(Cl)ccc(-c2nc(C(=O)O)c(Cl)c(N)c2F)c1F [Compound A Acid, 4-amino-3-chloro-6-(4-chloro-2-fluoro-3-methoxyphenyl)-5-fluoropyridine-2-carboxylic acid]
- Visual Weed Control (%) - 20 DAA SCPMA Obs ([1]; 8.75 gae/ha): 0%
- Visual Weed Control (%) - 20 DAA SCPMA Obs ([1]; 17.5 gae/ha): 0%
- Visual Weed Control (%) Obs ([1]; 20 DAA, 42.4 gae/ha): 0%
- Visual Weed Control (%) Obs ([1]; 20 DAA, 84.8 gae/ha): 0%
- Visual Weed Control (%) Obs ([1]; 21 DAA, 42.4 gae/ha): 0%
- Visual Weed Control (%) Obs ([1]; 22 DAA, 8.75 gae/ha): 0%
- Visual Weed Control (%) Obs ([1]; 22 DAA, 16 gae/ha): 0%
- Visual Weed Control (%) Obs ([1]; 22 DAA, 17.5 gae/ha): 0%
- Visual Weed Control (%) Obs ([1]; 22 DAA, 32 gae/ha): 0%
- Visual Weed Control (%) Obs ([1]; 22 DAA, 35 gae/ha): 0%
- Visual Weed Control (%) Obs ([1]; 22 DAA, 64 gae/ha): 30%
- Visual Weed Control (%) - 20 DAA SCPMA Obs ([1]; 35 gae/ha): 0%
- Visual Weed Control (%) - 21 DAA DIGSA Obs [2]: 10%
- Visual Weed Control (%) - 20 DAA LEFCH Obs ([3]; 4.38 gae/ha): 0%
- Visual Weed Control (%) - 20 DAA LEFCH Obs ([3]; 5.3 gae/ha): 10%
- Visual Weed Control (%) - 20 DAA LEFCH Obs ([3]; 8.75 gae/ha): 0%
- Visual Weed Control (%) - 20 DAA LEFCH Obs ([3]; 17.5 gae/ha): 10%
- Visual Weed Control (%) - 19 DAA LEFCH Obs ([3]; 19.4 gae/ha): 5%
- Visual Weed Control (%) - 21 DAA ECHCO Obs ([4]; 4.38 gae/ha): 70%
- Visual Weed Control (%) - 21 DAA ECHCO Obs ([4]; 8.75 gae/ha): 75%
- Visual Weed Control (%) - 20 DAA ECHOR Obs [5, 12]: 10%
- Visual Weed Control (%) - 21 DAA ECHOR Obs [5, 12]: 10%
- Visual Weed Control (%) - 22 DAA ECHOR Obs [5, 12]: 0%
- Visual Weed Control (%) - 25 DAA ECHOR Obs [5, 12]: 0%
- Visual Weed Control (%) - 20 DAA ECHOR Obs [5, 13]: 25%
- Visual Weed Control (%) - 21 DAA ECHOR Obs [5, 13]: 15%
- Visual Weed Control (%) - 22 DAA ECHOR Obs [5, 13]: 0%
- Visual Weed Control (%) - 25 DAA ECHOR Obs [5, 13]: 0%
- Visual Weed Control (%) - 20 DAA ECHOR Obs [5, 14]: 25%
- Visual Weed Control (%) - 21 DAA ECHOR Obs [5, 14]: 20%
- Visual Weed Control (%) - 22 DAA ECHOR Obs [5, 14]: 20%
- Visual Weed Control (%) - 25 DAA ECHOR Obs [5, 14]: 40%
- Visual Weed Control (%) - 19 DAA ECHOR Obs [5, 15]: 15%
- pest or weed control at 42.4 g/ha ([5]; Echinochloa oryzoides, 456 h, 19 DAA, 42.4 gae/ha, read-out: Visual Weed Control (%) Obs): 15%
- pest or weed control at 21.2 g/ha ([5]; Echinochloa oryzoides, 480 h, 20 DAA, 21.2 gae/ha, read-out: Visual Weed Control (%) Obs): 30%
- pest or weed control at 84.8 g/ha ([5]; Echinochloa oryzoides, 480 h, 20 DAA, 84.8 gae/ha, read-out: Visual Weed Control (%) Obs): 33%
- pest or weed control at 8.75 g/ha ([5]; Echinochloa oryzoides, 504 h, 21 DAA, 8.75 gae/ha, read-out: Visual Weed Control (%) Obs): 0%
- pest or weed control at 17.5 g/ha ([5]; Echinochloa oryzoides, 504 h, 21 DAA, 17.5 gae/ha, read-out: Visual Weed Control (%) Obs): 0%
- pest or weed control at 35 g/ha ([5]; Echinochloa oryzoides, 504 h, 21 DAA, 35 gae/ha, read-out: Visual Weed Control (%) Obs): 20%
- pest or weed control at 42.4 g/ha ([5]; Echinochloa oryzoides, 504 h, 21 DAA, 42.4 gae/ha, read-out: Visual Weed Control (%) Obs): 15%
- pest or weed control at 8.75 g/ha ([5]; Echinochloa oryzoides, 528 h, 22 DAA, 8.75 gae/ha, read-out: Visual Weed Control (%) Obs): 0%
- pest or weed control at 17.5 g/ha ([5]; Echinochloa oryzoides, 528 h, 22 DAA, 17.5 gae/ha, read-out: Visual Weed Control (%) Obs): 0%
- pest or weed control at 35 g/ha ([5]; Echinochloa oryzoides, 528 h, 22 DAA, 35 gae/ha, read-out: Visual Weed Control (%) Obs): 20%
- pest or weed control at 8.75 g/ha ([5]; Echinochloa oryzoides, 600 h, 25 DAA, 8.75 gae/ha, read-out: Visual Weed Control (%) Obs): 0%
- pest or weed control at 17.5 g/ha ([5]; Echinochloa oryzoides, 600 h, 25 DAA, 17.5 gae/ha, read-out: Visual Weed Control (%) Obs): 0%
- pest or weed control at 35 g/ha ([5]; Echinochloa oryzoides, 600 h, 25 DAA, 35 gae/ha, read-out: Visual Weed Control (%) Obs): 40%
- Visual Weed Control (%) - 20 DAA IPOHE Obs ([6]; 4.38 gae/ha): 10%
- Visual Weed Control (%) - 20 DAA IPOHE Obs ([6]; 8.75 gae/ha): 15%
- Visual Weed Control (%) - 20 DAA IPOHE Obs ([6]; 17.5 gae/ha): 30%
- Visual Weed Control (%) - 21 DAA ECHCG Obs ([7]; 4.38 gae/ha): 15%
- Visual Weed Control (%) - 21 DAA ECHCG Obs ([7]; 8.75 gae/ha): 50%
- Visual Weed Control (%) - 19 DAA ECHCG Obs ([7]; 19.4 gae/ha): 80%
- Visual Weed Control (%) - 21 DAA ECHCG Obs ([8]; 8.75 gae/ha): 0%
- Visual Weed Control (%) - 22 DAA ECHCG Obs ([8]; 8.75 gae/ha): 0%
- Visual Weed Control (%) - 21 DAA ECHCG Obs ([8]; 17.5 gae/ha): 0%
- Visual Weed Control (%) - 22 DAA ECHCG Obs ([8]; 17.5 gae/ha): 20%
- Visual Weed Control (%) Obs ([8]; 20 DAA, 10.6 gae/ha): 20%
- Visual Weed Control (%) Obs ([8]; 20 DAA, 21.2 gae/ha): 20%
- Visual Weed Control (%) Obs ([8]; 20 DAA, 42.4 gae/ha): 50%
- Visual Weed Control (%) Obs ([8]; 21 DAA, 10.6 gae/ha): 0%
- Visual Weed Control (%) Obs ([8]; 22 DAA, 8.75 gae/ha): 0%
- Visual Weed Control (%) Obs ([8]; 22 DAA, 17.5 gae/ha): 20%
- Visual Weed Control (%) Obs ([8]; 22 DAA, 21.2 gae/ha): 25%
- Visual Weed Control (%) Obs ([8]; 22 DAA, 35 gae/ha): 25%
- Visual Weed Control (%) Obs ([8]; 22 DAA, 42.4 gae/ha): 30%
- Visual Weed Control (%) Obs ([8]; 25 DAA, 8.75 gae/ha): 0%
- Visual Weed Control (%) Obs ([8]; 25 DAA, 17.5 gae/ha): 0%
- Visual Weed Control (%) Obs ([8]; 25 DAA, 35 gae/ha): 70%
- Visual Weed Control (%) - 21 DAA ECHCG Obs ([8]; 35 gae/ha): 20%
- Visual Weed Control (%) - 22 DAA ECHCG Obs ([8]; 35 gae/ha): 25%
- Visual Weed Control (%) - 20 DAA CYPRO Obs ([9]; 8.75 gae/ha): 0%
- Visual Weed Control (%) - 21 DAA CYPRO Obs ([9]; 8.75 gae/ha): 0%
- Visual Weed Control (%) - 22 DAA CYPRO Obs ([9]; 8.75 gae/ha): 0%
- Visual Weed Control (%) - 20 DAA CYPRO Obs ([9]; 17.5 gae/ha): 70%
- Visual Weed Control (%) - 21 DAA CYPRO Obs ([9]; 17.5 gae/ha): 30%
- Visual Weed Control (%) - 22 DAA CYPRO Obs ([9]; 17.5 gae/ha): 20%
- Visual Weed Control (%) Obs ([9]; 20 DAA, 10.6 gae/ha): 10%
- Visual Weed Control (%) Obs ([9]; 20 DAA, 21.2 gae/ha): 20%
- Visual Weed Control (%) Obs ([9]; 22 DAA, 8.75 gae/ha): 0%
- Visual Weed Control (%) Obs ([9]; 22 DAA, 10.6 gae/ha): 0%
- Visual Weed Control (%) Obs ([9]; 22 DAA, 17.5 gae/ha): 20%
- Visual Weed Control (%) Obs ([9]; 22 DAA, 21.2 gae/ha): 40%
- Visual Weed Control (%) Obs ([9]; 22 DAA, 35 gae/ha): 50%
- Visual Weed Control (%) - 21 DAA CYPRO Obs ([9]; 35 gae/ha): 85%
- Visual Weed Control (%) - 22 DAA CYPRO Obs ([9]; 35 gae/ha): 50%
- Visual Weed Control (%) - 20 DAA CYPIR Obs [10]: 65%
- Visual Weed Control (%) - 21 DAA LEFCH Obs [11, 12]: 0%
- Visual Weed Control (%) - 25 DAA LEFCH Obs [11, 12]: 50%
- Visual Weed Control (%) - 21 DAA LEFCH Obs [11, 13]: 0%
- Visual Weed Control (%) - 25 DAA LEFCH Obs [11, 13]: 50%
- Visual Weed Control (%) Obs ([11]; 22 DAA, 10.6 gae/ha): 20%
- Visual Weed Control (%) Obs ([11]; 22 DAA, 21.2 gae/ha): 40%
- Visual Weed Control (%) Obs ([11]; 22 DAA, 42.4 gae/ha): 60%
- Visual Weed Control (%) Obs ([11]; 25 DAA, 8.75 gae/ha): 50%
- Visual Weed Control (%) Obs ([11]; 25 DAA, 17.5 gae/ha): 50%
- Visual Weed Control (%) Obs ([11]; 25 DAA, 35 gae/ha): 85%
- Visual Weed Control (%) - 21 DAA LEFCH Obs [11, 14]: 30%
- Visual Weed Control (%) - 25 DAA LEFCH Obs [11, 14]: 85%
- Visual Weed Control (%) - 19 DAA LEFCH Obs [11, 15]: 10%
